Data as given in PubChem BioAssay (NCI).
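Interpolation was linear, between the two tested concentrations surrounding the appropriate level; five concentrations were tested over 48 hours in 96-well plates. GI50: concentration for 50% inhibition of growth. The concentration for full growth arrest is given as TGI.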

Assays:
Assay in all cases: DTP human tumour cell line panel, 48 h
[1] = test system: A549 NSCLC
[2] = test system: ACHN renal
[3] = test system: MOLT-4 leukemia
[4] = test system: HOP-62 NSCLC
[5] = test system: MDA-MB-231 breast
[6] = test system: SK-OV-3 ovarian
[7] = test system: CAKI-1 renal
[8] = test system: HS 578T breast
[9] = test system: MCF7 breast
[10] = test system: SF-295 CNS
[11] = test system: UACC-257 melanoma
[12] = test system: A498 renal
[13] = test system: RPMI-8226 leukemia
[14] = test system: COLO 205 colon
[15] = test system: UO-31 renal
[16] = test system: PC-3 prostate
[17] = test system: MDA-MB-435
[18] = test system: SF-268 CNS
[19] = test system: HCT-15 colon
[20] = test system: DU-145 prostate
[21] = test system: OVCAR-5 ovarian
[22] = test system: SF-539 CNS
[23] = test system: OVCAR-4 ovarian
[24] = test system: HT29 colon
[25] = test system: NCI-H522 lung
[26] = test system: MALME-3M melanoma
[27] = test system: OVCAR-3 ovarian
[28] = test system: HOP-92 NSCLC
[29] = test system: NCI-H23 lung
[30] = test system: BT-549 breast
[31] = test system: SNB-75 CNS
[32] = test system: RXF 393 renal
[33] = test system: CCRF-CEM leukemia
[34] = test system: OVCAR-8 ovarian
[35] = test system: T-47D breast
[36] = test system: HL-60(TB) leukemia
[37] = test system: UACC-62 melanoma
[38] = test system: SK-MEL-28 melanoma
[39] = test system: KM12 colon
[40] = test system: SN12C renal
[41] = test system: IGROV1 ovarian
[42] = test system: SK-MEL-5 melanoma
[43] = test system: SNB-19 CNS
[44] = test system: NCI-H226 lung
[45] = test system: K-562 leukemia
[46] = test system: 786-0 renal
[47] = test system: LOX IMVI melanoma
[48] = test system: NCI-H460 lung
[49] = test system: HCT-116 colon
[50] = test system: SW-620 colon
[51] = test system: EKVX NSCLC
[52] = test system: HCC-2998 colon
[53] = test system: MDA-MB-468 breast
[54] = test system: SK-MEL-2 melanoma
[55] = test system: TK-10 renal
[56] = test system: NCI/ADR-RES ovarian
[57] = test system: M14 melanoma
[58] = test system: U251 CNS

Work on `C=C1CC[C@@H]2[C@]3(C)COC(c4ccccc4)O[C@@H]3CC[C@@]2(C)[C@@H]1C/C=C1/C(=O)OCC1OC(C)=O` (stereo partly specified) yielded a GI50 [1] of 15.4 µM, a TGI [1] of 32.3 µM and a GI50 [2] of 8.95 µM. The TGI [2] was 21 µM, the GI50 [3] was 4.43 µM and the TGI [3] was 28.6 µM. The GI50 [4] was 16 µM, the TGI [4] was 31.2 µM and the GI50 [5] was 10.9 µM. For the same compound, the TGI [5] was 23 µM, the GI50 [6] was 19.3 µM and the TGI [6] was 34.4 µM. The GI50 [7] was 12.2 µM, the TGI [7] was 24.7 µM and the GI50 [8] was 20.5 µM. It also gave a TGI [8] of 67.4 µM, a GI50 [9] of 3.34 µM and a TGI [9] of 15.5 µM. It also gave a GI50 [10] of 13.3 µM, a TGI [10] of 26.1 µM and a GI50 [11] of 14.3 µM. For the same compound, the TGI [11] was 28.7 µM, the GI50 [12] was 19.9 µM and the TGI [12] was 35.7 µM. The GI50 [13] was 2700 nM, the TGI [13] was 7.85 µM and the GI50 [14] was 17.5 µM. For the same compound, the TGI [14] was 36.1 µM, the GI50 [15] was 10.4 µM and the TGI [15] was 22.1 µM. It also gave a GI50 [16] of 5.4 µM, a TGI [16] of 20.4 µM and a GI50 [17] of 10.4 µM. It also gave a TGI [17] of 22.5 µM, a GI50 [18] of 15.7 µM and a TGI [18] of 34.3 µM. The GI50 [19] was 4.3 µM, the TGI [19] was 16.3 µM and the GI50 [20] was 13.6 µM. For the same compound, the TGI [20] was 27.2 µM, the GI50 [21] was 13.4 µM and the TGI [21] was 26.2 µM. The GI50 [22] was 4.12 µM, the TGI [22] was 14.8 µM and the GI50 [23] was 10.9 µM. For the same compound, the TGI [23] was 25.2 µM, the GI50 [24] was 3.63 µM and the TGI [24] was 13.7 µM. It also gave a GI50 [25] of 10.2 µM, a TGI [25] of 22.8 µM and a GI50 [26] of 17.1 µM. The TGI [26] was 33.1 µM, the GI50 [27] was 2740 nM and the TGI [27] was 11.9 µM. It also gave a GI50 [28] of 10.4 µM, a TGI [28] of 23.4 µM and a GI50 [29] of 15.1 µM. For the same compound, the TGI [29] was 29.1 µM, the GI50 [30] was 2670 nM and the TGI [30] was 10 µM. For the same compound, the GI50 [31] was 1770 nM, the TGI [31] was 19.3 µM and the GI50 [32] was 4.13 µM. The TGI [32] was 17 µM, the GI50 [33] was 2540 nM and the TGI [33] was 10.9 µM. It also gave a GI50 [34] of 3.23 µM, a TGI [34] of 12.3 µM and a GI50 [35] of 10.6 µM. For the same compound, the TGI [35] was 27 µM, the GI50 [36] was 7.37 µM and the TGI [36] was 39.2 µM. For the same compound, the GI50 [37] was 7.28 µM, the TGI [37] was 20.3 µM and the GI50 [38] was 13.9 µM. It also gave a TGI [38] of 26.9 µM, a GI50 [39] of 10.6 µM and a TGI [39] of 25.7 µM. It also gave a GI50 [40] of 5.64 µM, a TGI [40] of 18.9 µM and a GI50 [41] of 14.4 µM. For the same compound, the TGI [41] was 27.8 µM, the GI50 [42] was 12.2 µM and the TGI [42] was 24.8 µM. The GI50 [43] was 15.1 µM, the TGI [43] was 28.4 µM and the GI50 [44] was 4.89 µM. For the same compound, the TGI [44] was 23.1 µM, the GI50 [45] was 3.72 µM and the TGI [45] was greater than 100 µM. The GI50 [46] was 12.5 µM, the TGI [46] was 25.4 µM and the GI50 [47] was 1800 nM. The TGI [47] was 3.61 µM, the GI50 [48] was 18.9 µM and the TGI [48] was 51.8 µM. For the same compound, the GI50 [49] was 2250 nM, the TGI [49] was 5.78 µM and the GI50 [50] was 3.04 µM. For the same compound, the TGI [50] was 10.3 µM, the GI50 [51] was 10.7 µM and the TGI [51] was 22.6 µM. The GI50 [52] was 13.9 µM, the TGI [52] was 26.9 µM and the GI50 [53] was 5.05 µM. For the same compound, the TGI [53] was 19 µM, the GI50 [54] was 11.1 µM and the TGI [54] was 24.8 µM. It also gave a GI50 [55] of 19 µM, a TGI [55] of 33.4 µM and a GI50 [56] of 3.28 µM. For the same compound, the TGI [56] was 11.1 µM, the GI50 [57] was 7.44 µM and the TGI [57] was 20.9 µM. For the same compound, the GI50 [58] was 10.4 µM and the TGI [58] was 24.5 µM.
